Data reported in ChEMBL document CHEMBL2424564, “Vermelhotin, an anti-inflammatory agent, suppresses nitric oxide production in RAW 264.7 cells via p38 inhibition” (J Nat Prod, 2013).
Calls of active or inactive are those of the source. The calls are words filed in the database; no cut-off is given here.

How the values were obtained:
[1] = biological target: T1, MAP kinase p38 (Mus musculus) (UniProt P47811+O08911+Q9WUI1+Q9Z1B7); assay: Inhibition of p38 phosphorylation in LPS-stimulated mouse RAW264.7 cells at 16.7 uM incubated for 15 mins prior to LPS stimulation measured after 15 mins by Western blot analysis; format: cell-based
[2] = test system: RAW264.7; assay: Activation of NF-kappaB in mouse RAW264.7 cells assessed as inhibition of LPS-induced IkappaB degradation at 1.9 to 16.7 uM incubated for 15 mins prior to LPS stimulation measured after 15 mins by Western blot analysis; format: cell-based
[3] = test system: RAW264.7; assay: Effect on JNK phosphorylation in LPS-stimulated mouse RAW264.7 cells at 1.9 to 16.7 uM incubated for 15 mins prior to LPS stimulation measured after 15 mins by Western blot analysis; format: cell-based
[4] = test system: RAW264.7; assay: Effect on ERK phosphorylation in LPS-stimulated mouse RAW264.7 cells at 1.9 to 16.7 uM incubated for 15 mins prior to LPS stimulation measured after 15 mins by Western blot analysis; format: cell-based
[5] = biological target: T1, MAP kinase p38 (Mus musculus); assay: Inhibition of p38 phosphorylation in LPS-stimulated mouse RAW264.7 cells incubated for 15 mins prior to LPS stimulation measured after 15 mins by Western blot analysis; format: cell-based
[6] = test system: RAW264.7; assay: Downregulation of iNOS mRNA expression in LPS-stimulated mouse RAW264.7 cells at 16.7 uM incubated for 15 mins prior to LPS stimulation measured after 6 hrs by qRT-PCR analysis (reference value: 503.95 no unit); format: functional
[7] = test system: RAW264.7; assay: Downregulation of iNOS mRNA expression in LPS-stimulated mouse RAW264.7 cells at 5.6 uM incubated for 15 mins prior to LPS stimulation measured after 6 hrs by qRT-PCR analysis (reference value: 503.95 no unit); format: functional
[8] = test system: RAW264.7; assay: Downregulation of iNOS mRNA expression in LPS-stimulated mouse RAW264.7 cells at 1.9 uM incubated for 15 mins prior to LPS stimulation measured after 6 hrs by qRT-PCR analysis (reference value: 503.95 no unit); format: functional
[9] = test system: RAW264.7; assay: Downregulation of iNOS mRNA expression in LPS-stimulated mouse RAW264.7 cells at 16.7 uM incubated for 15 mins prior to LPS stimulation measured after 6 hrs by qRT-PCR analysis relative to vehicle-treated control; format: functional
[10] = test system: RAW264.7; assay: Downregulation of iNOS mRNA expression in LPS-stimulated mouse RAW264.7 cells incubated for 15 mins prior to LPS stimulation measured after 6 hrs by qRT-PCR analysis; format: functional, cell-based
[11] = test system: RAW264.7; assay: Downregulation of iNOS protein expression in LPS-stimulated mouse RAW264.7 cells incubated for 15 mins prior to LPS stimulation measured after 20 hrs by Western blot analysis; format: functional, cell-based
[12] = (§1) Cytotoxicity against mouse RAW264.7 cells assessed as cell survival after 20 hrs by SRB assay; format: cell-based; conditions: RAW264.7 cells, read-out: Survival
[13] = test system: RAW264.7; assay: Antiinflammatory activity in mouse RAW264.7 cells assessed as inhibition of LPS-induced nitric oxide production incubated for 15 mins prior to LPS challenge measured after 20 hrs by Griess assay; format: functional, cell-based
[14] = test system: RAW264.7; assay: Antiinflammatory activity in mouse RAW264.7 cells assessed as inhibition of LPS-induced nitric oxide production at 50 uM incubated for 15 mins prior to LPS challenge measured after 20 hrs by Griess assay relative to control; format: functional
[15] = test system: RAW264.7; assay: as §1; format: cell-based; conditions: raw264.7, 20 h

Structure (SMILES) | viability at 20 h [12] | IC50 [13] | inhibition at 50 µM [14] | Activity [15] | other results
C/C=C/C1=CC=C/C(=C2\C(=O)CNC2=O)O1 [VERMELHOTIN] | > 80% | 5.35 µM | ≥ 80% |  | inhibition [1]: Active; Activity [2]: Active; Activity [3]: inactive; Activity [4]: inactive; inhibition [5]: Dose-dependent effect; fold change (FC) [6]: 13.72; fold change (FC) [7]: 144.02; fold change (FC) [8]: 203.39; inhibition at 16.7 µM [9]: > 95%; inhibition [10]: Dose-dependent effect; inhibition [11]: Dose-dependent effect
C/C=C(\C)c1c(Br)c(O)c(C)c2c1Oc1cc(O)c(Br)c(C)c1C(=O)O2 |  | 23.7 µM | ≥ 80% | Toxic | 
CC[C@@H](C)C[C@]1(C)C=C/C(=C2/C(=O)O[C@H](CC(=O)OC)C2=O)O1 |  | 6.82 µM | ≥ 80% | Toxic | 
CNC(=N)NCCC[C@H](N)C(=O)O [TILARGININE] |  | 21.7 µM |  |  | 
Cc1cc(O)c2c(c1O)C(=O)c1cc(O)cc(O)c1C2=O [CATENARIN] | > 80% | 41.3 µM | ≥ 80% |  | 
C/C=C(\C)c1cc(O)c(C)c2c1Oc1cc(O)c(Cl)c(C)c1C(=O)O2 | > 80% | 36.1 µM | ≥ 80% |  | 
